This data set can be described thus: gradient 5% acetonitrile 3 min, to 50% in 2 min, to 85% in 15 min, held 3 min, 100 µL/min. Conditions: column: Zorbax Extend-C18 2.1 x 50 mm; eluents: water / acetonitrile, 0.1% formic acid. The method in brief: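 Retention time was recorded from adduct peaks, which were picked computationally and each inspected manually. Pure standards ran in mixtures of ~100 molecules on HPLC coupled to a quadrupole time-of-flight mass spectrometer, in positive and negative ionization mode, through a Zorbax Extend-C18 column (2.1 × 50 mm, 1.8 μm) at 100 μL/min. Eluents were water and acetonitrile, each with 0.1% formic acid.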
Take `O=C(CN1C(=O)CCCc2cc(S(=O)(=O)N3CCCC3)ccc21)Nc1ccccc1`: the RP-LC retention time was determined as 803 s. Turning to `CC(C)Cn1c(CCNC(=O)c2ccc(F)cc2)nc2cccnc21`, the RP-LC retention time was determined as 700 s. Next, `Cc1cc(NS(=O)(=O)c2ccc(-c3c(C)noc3C)cc2)ccc1Br`: 1030 s. The compound `Cc1ccc(-n2ccc(=O)c(-c3nc(-c4ccccc4C)no3)n2)cc1C` showed an RP-LC retention time of 1060 s. On to `O=C(NCc1ccc2c(c1)CCCN2C(=O)C1CC1)c1ccc(Br)o1`, for which the RP-LC retention time came out at 840 s.

Consider `COc1ccc(NC(=O)Cn2nc3c(Oc4ccccc4C)nccn3c2=O)cc1`, for which the RP-LC retention time amounted to 790 s. Consider `COc1ccccc1NC(=O)N1C[C@@H]2CN(S(=O)(=O)c3ccc(C)cc3)C[C@H](C1)O2`, for which the RP-LC retention time came out at 836 s.

For the compound `COc1cccc(C(=O)Nc2nc(-c3ccc4c(c3)NC(=O)CO4)c(C)s2)c1`, the RP-LC retention time turned out to be 877 s. Then `Cc1cccc2nnc(N3CCCC(C(=O)NCc4cccs4)C3)n12` (stereo not given), with 659 s; and `COc1cccc(CNC(=O)C2(C)CCCN(C(=O)Nc3cccc(F)c3)C2)c1` (stereo not given), with 872 s.

`COc1cccc(-c2ccc(=O)n(CCc3nc(-c4cccc(Br)c4)no3)n2)c1`: the RP-LC retention time stood at 1080 s. For the compound `O=C(O)C1CCCN1C(=O)c1ccc(N2C(=O)C3C4C=CC(C4)C3C2=O)cc1` (stereo not given), the RP-LC retention time came to 642 s.

Take `COc1ccc(-c2c(C)noc2NC(C)=O)cc1S(=O)(=O)N1CCN(c2ncccn2)CC1`: the RP-LC retention time worked out at 700 s.

In turn, `Cc1ccc(-c2nc3cccnc3n2C2CCN(S(=O)(=O)c3cccnc3)C2)cc1` (stereo not given) had an RP-LC retention time of 728 s. Then `O=C(CCc1nnn2c1CN(C(=O)Nc1ccc3c(c1)OCCO3)CC2)N1CCCC1`, with 625 s.

Regarding `CCCn1c(CCNC(=O)c2ccc(C)c(F)c2)nc2cccnc21`, the RP-LC retention time was determined as 695 s. Next, `CCCc1noc(-c2ccc(-n3cnc(C(=O)N4CCCC4)c3)nc2)n1`: 816 s; `Cn1c(=O)c(N2CCC(NC(=O)Nc3ccc(Cl)cc3)CC2)nc2ccccc21`: 904 s. Then `Cc1cccc(OCc2nc(-c3ccc4oc(C)nc4c3)no2)c1`, with 1180 s; and `Cc1cc(N2CCN(C)CC2)nc2ccc(NC(=S)NC3CCCC(C)C3C)cc12` (stereo not given), with 639 s; and `Cc1cc(N2CCN(C(=O)c3ccccc3)CC2)nc2nncn12`, with 558 s. Then `CC(C)n1cnc2ccc(-c3noc(-c4ccc(F)cc4)n3)cc21`, with 742 s; and `CC(C)CC(=O)N1CCC(COc2ccc(C(=O)NC(C)C)cc2)CC1`, with 801 s; and `CC(C)n1cnc(S(=O)(=O)N2CCC(C(=O)NCc3ccccc3Cl)CC2)c1`, with 744 s.

In turn, `CC(C)CC(=O)Nc1ccc2c(c1)nc(CN1CCOCC1)n2C(C)C` registered an RP-LC retention time of 630 s. Then `CCCn1cc(C(=O)NCc2cccc(C)c2)c(S(=O)(=O)N2CCC(C)CC2)n1`, with 1130 s; and `CCCNC(=O)c1nnc(-c2ccc(S(=O)(=O)N3CCOCC3)cc2)o1`, with 724 s.

Consider `CCCN1C(=O)c2cc(C(=O)N3CCC(C)CC3)nn2CC1(C)C(=O)NC1CCCC1` (stereo not given), for which the RP-LC retention time turned out to be 817 s. Next, `COc1cccc(NC(=O)C2CCCN(S(=O)(=O)c3c[nH]c(C(=O)N4CCCCCC4)c3)C2)c1` (stereo not given): 882 s; `CN(C)CCN(C)CCc1ccc(Cl)c(Cl)c1`: 639 s. Next, `Cc1cc(NC(=O)c2ccc(=O)n(C)n2)no1`: 598 s; `O=C(Cn1cnc2ccccc2c1=O)N1CCCC1`: 612 s; `CCn1c(=O)sc2cc(S(=O)(=O)N3CCC(C(=O)Nc4ccc(F)cc4)CC3)ccc21`: 917 s. Next, `CC(C)NC(=O)c1ccc(OCC2CCN(C(=O)c3cccs3)CC2)cc1`: 757 s; `CC(C)c1ccc(-c2noc(N3CCC(C(=O)NCCN4CCCC4)CC3)n2)cc1`: 730 s. The compound `CCc1noc(-c2ccc(-n3ncc(C(=O)N(C)C)c3C)nc2)n1` registered an RP-LC retention time of 748 s.

With `CN(C)c1cccc(-c2nc(-c3cn(Cc4ccc(F)cc4)nn3)no2)c1`, the RP-LC retention time is 1030 s. Next, `O=C(NCC1CCN(C(=O)COc2ccccc2)CC1)c1ccc(Br)o1`: 722 s; `OC(CN1CCCCC1)c1ccc(/C=C/c2ccc(Cl)cc2)cc1` (stereo not given): 766 s. Then `Cc1cnc(C(=O)N[C@@H]2CCC[C@@H]2C(=O)NC2CCCCCC2)cn1`, with 735 s; and `O=C(Cn1ccn2nc(-c3ccc(F)cc3)c(CO)c2c1=O)N1CCCC1`, with 683 s. Next, `O=C(CSc1ccc(N2CCCC(C(=O)NC3CC3)C2)nn1)NCc1ccccc1Cl` (stereo not given): 635 s; `CCOc1ccc(-c2noc(Cn3c(=O)n(CC)c(=O)c4ccccc43)n2)cc1OC`: 984 s.

`COc1ccc(C2(C(=O)N3CCc4nn(CC5CC5)c(=O)n4CC3)CC2)cc1`: the RP-LC retention time worked out at 709 s. Next, `Cc1ccc(CNc2nnc(-c3nnc(C)o3)c3ccccc23)cc1`: 830 s. Then `CN1CCN(C(=O)CN2C(=O)C3CCCCN3c3ccc(S(=O)(=O)N4CCCC4)cc32)CC1` (stereo not given), with 631 s.

In turn, `CCc1nncn1C1CCN(S(=O)(=O)c2ccc(OC)cc2)CC1` had an RP-LC retention time of 668 s.

For `Cc1noc2nc(C)n(CC(=O)Nc3ccccc3F)c(=O)c12`, the RP-LC retention time came out at 752 s. Then `Cc1ccc(S(=O)(=O)c2nc(C)oc2NCc2ccco2)cc1`, with 814 s; and `CCOC(=O)c1cnc2nc(C)ccc2c1Nc1cc(F)ccc1Cl`, with 764 s. Consider `O=C(NCC1CCCO1)c1cccc(Nc2c(-c3ccc(Cl)cc3)nc3cnccn23)c1` (stereo not given), for which the RP-LC retention time turned out to be 753 s.

The compound `CCCn1c(=O)c(C)nc2cc(-c3noc(-c4ccc(OCC)cc4)n3)ccc21` came in with an RP-LC retention time of 1290 s. With `CCCN1C(=O)COc2ccc(-c3noc(C(C)NC(=O)c4ccccc4)n3)cc21` (stereo not given), the RP-LC retention time worked out at 900 s.

Take `CC1=NOC(C)(CNC(=O)NC2CCCC2)C1` (stereo not given): the RP-LC retention time came to 633 s.

The compound `CCn1c(=O)sc2cc(S(=O)(=O)N3CCC(C(=O)NCc4ccc(C)cc4)CC3)ccc21` displayed an RP-LC retention time of 932 s. `COc1cc(OC)c(NC(=O)Cc2nnc(-c3ccc4ncccc4c3)o2)cc1Cl` returned an RP-LC retention time of 936 s. Compound `CN(C)c1ncncc1N1CCC(C(=O)NC2CCCCC2)CC1` had an RP-LC retention time of 607 s. Next, `CCCN1CCN(CCCNC(=O)C2=Cc3cc(Br)ccc3OC2)CC1`: 610 s; `CCNC(=O)N1CCc2c(c(-c3nc(-c4ccc(F)cc4)no3)nn2C)C1`: 788 s; `Cc1ccc(-c2nc(C(N)=O)c3n2CCCCC3)cc1`: 690 s. `CCc1ccc(NC(=O)Cc2c(C)nn(-c3nc(-c4ccc(F)cc4)cs3)c2C)cc1`: the RP-LC retention time is 1240 s. For `CC1CN(CCc2ccccc2)c2nc3c(c(=O)n(CCN4CCOCC4)c(=O)n3C)n2C1` (stereo not given), the RP-LC retention time stood at 680 s. As for `Cc1ccc(NC(=O)C2CCCN(S(=O)(=O)c3c[nH]c(C(=O)N4CCCC4)c3)C2)cc1C` (stereo not given), the RP-LC retention time came to 866 s. Next, `CCc1ccccc1NC(=O)C1CCC(=O)N1S(=O)(=O)c1ccc(C)c(C)c1` (stereo not given): 978 s; `CC12CC(c3ccccc3O1)C(C(=O)Nc1cccc(C(F)(F)F)c1)C(=O)N2` (stereo not given): 897 s.

Turning to `CN(C)c1nc2cc(C(=O)NCc3ccncc3)sc2n1-c1ccccc1`, the RP-LC retention time was found to be 1130 s. Then `COc1cc(CN(CC2CCCO2)C(=O)c2ccc(F)cc2)cc(OC)c1OC` (stereo not given), with 834 s.

With `CCOCCCNC(=O)C1c2cc(OC)c(OC)cc2C(=O)N2CCc3ccccc3C12` (stereo not given), the RP-LC retention time came to 718 s. Next, `CCOC(=O)C1CCN(C(=O)C2CCN(c3nnc(-c4ccccc4)o3)CC2)CC1`: 801 s; `Fc1cccc(-c2noc(Cc3nnc(-c4ccc(Cl)cc4)o3)n2)c1`: 995 s.

For `COC(=O)c1c[n+]([O-])ccc1OC`, the RP-LC retention time turned out to be 603 s. Next, `NC(=O)c1ccc(-n2cccc2)nc1`: 650 s; `O=C(NCc1cccs1)c1nc2ccccn2c1-c1ccsc1`: 830 s. On to `Cc1ccc2c(c1)OCC(=O)N2Cc1nc(-c2cccc(C(F)(F)F)c2)no1`, for which the RP-LC retention time came to 919 s. Then `O=C(C1CCN(c2cnn(Cc3ccccc3)c(=O)c2)C1)N1CCCC1` (stereo not given), with 683 s; and `COc1ccc(C(=O)Nc2cc(-c3ccccn3)no2)cc1`, with 784 s; and `CCOc1cc(=O)n2c(c1C(=O)Nc1ccc(Cl)c(C)c1)CCCC2`, with 829 s. In turn, `O=S(=O)(c1ccc(F)cc1)N1[C@H]2CC[C@@H]1c1cncnc1C2` returned an RP-LC retention time of 709 s.

For the compound `COc1ccc(-c2c(C)noc2NC(C)=O)cc1S(=O)(=O)Nc1ccc(C)cc1C`, the RP-LC retention time was 804 s.

Consider `COc1ccc(NC(=O)N2CCC3(C2)C(=O)Nc2ccccc23)cc1` (stereo not given), for which the RP-LC retention time is 702 s.
